Experimental data reported in patent publication US20020061924A1, “Agent containing tocotrienol for drug” (priority 2000, published 2002).

Tests used:
[1] = tested on: human erythrocyte membrane; assay: Reactivity with AAPH radicals on human erythrocyte membrane (residual rate); type: cell-based; conditions: for Residual Rate (%) 1 hr. / Residual Rate (%) 2 hrs. / Residual Rate (%) 3 hrs.: 10% erythrocyte suspension, 75 mM AAPH, 37° C.; for Residual Rate (%) 1 hr.: after 1 hour; for Residual Rate (%) 2 hrs.: after 2 hours; for Residual Rate (%) 3 hrs.: after 3 hours
Procedure: Human erythrocytes to be tested were prepared from blood of a healthy person by treating the blood according the method disclosed in Lipids, vol. 33 (6), p589-595 (1998). Actually, blood drawn from a healthy person was put in a test tube containing EDTA-2Na (1 mg/ml), and certrifuged at 1000×g at 4° C. for 20 minutes to be separated into erythrocytes and plasma. The erythrocytes were washed three times with 5 parts by volume of phosphate-buffered saline (PBS), and centrifuged exactly at 1000×g for 20 minutes to obtain a definite volume of packed erythrocytes.
The erythrocytes were subjected to hemolysis test according to the method of Miki et al., Arch. Biochem. Biophys. 258, p373-380. 0.5 ml of the human erythrocytes were suspended into 4 parts by volume of PBS, and a-tocotrienol ethanol solution was added thereto wherein the final ethanol concentration was made 0.5% (v/v) or less. After incubating the mixture at 37° C. for 30 minutes, the erythrocytes were washed. 10% suspension of the erythrocytes was incubated again. To the suspension, 75 mM AAPH-PBS solution was added, and oxidation was carried out at 37° C. in a dark place with stirring. The state of erythrocyte membrane, which was destroyed by radicals to induce hemolysis, was observed.
Similarly, the human erythrocytes were incubated with α-tocopherol for 30 minutes, washed, and 10% suspension of the erythrocytes was incubated again. To the suspension, 75 mM AAPH was added, and the state of erythrocyte membrane, which was destroyed by radicals to induce hemolysis, was observed.
Reactivity of α-tocotrienol and α-tocopherol with radicals on human erythrocyte membrane was examined, and residual rate of α-tocotrienol and α-tocopherol in solution was measured after 1, 2 and 3 hours.

Human erythrocytes = assay: Deformability of erythrocytes by Micro-Channel Array Flow Analyzer (MC-FAN); type: cell-based; conditions: for Passage Time: Table 1, control 54 ± 3; for Ratio to Control: passage time relative to control (1.00)
Procedure: Deformability of erythrocytes was measured using a Micro-Channel Array Flow Analyzer (MC-FAN) illustrated in FIG. 3 which measures time for passing total volume of an erythrocyte (8-10 μm) through a pore (6 μm) of a microchip.
Human erythrocytes were incubated with 43.3 μM α-tocotrienol for 30 minutes to incorporate the α-tocotrienol into the erythrocytes, and deformability of the erythrocytes was measured by the MC-FAN. As a control sample, human erythrocytes without α-tocotrienol were prepared, and the deformability was also measured.
In comparison, human erythrocytes were incubated with 40 μM α-tocopherol (vitamin E, Tokyo Kasei Kogyo) for 30 minutes to incorporate the α-tocopherol into the erythrocytes, and deformability of the erythrocytes was measured by the MC-FAN. As a result, passage time of the erythrocyte with a -tocopherol was 36 sec/ 100 μl RBC.

[2] = tested on: hemolysis by dialuric acid; conditions: amount relative to comparator; cited from earlier work
[3] = Antioxidant action on monolayer liposome (iron-ascorbic acid, AAPH, lipoxigenase systems); conditions: tocotrienol compared with tocopherol
Procedure: (§1) Strength of antioxidant action of tocotrienol and tocopherol on monolayer liposome and erythrocyte membrane was evaluated by using iron-ascorbic acid, 2, 2′-azobis (2-amidinopropane).2HCl (AAPH) which is a water-soluble radical generator and lipoxigenase reaction system.

erythrocyte membrane = assay: Antioxidant action on erythrocyte membrane (iron-ascorbic acid, AAPH, lipoxigenase systems); type: cell-based; conditions: tocotrienol compared with tocopherol
Procedure: as §1

Row | Compound | Residual Rate (%) 1 hr. [1] [%] | Residual Rate (%) 2 hrs. [1] [%] | Residual Rate (%) 3 hrs. [1] [%] | Passage Time (Human erythrocytes) [sec/100 μ1 RBC] | passage time of the erythrocyte (Human erythrocytes; incubated with 43.3 μM for 30 minutes, without compound 54) | Ratio to Control (Human erythrocytes) | inhibition of hemolysis by dialuric acid [2] | passage time of the erythrocyte (Human erythrocytes; incubated with 40 μM for 30 minutes) [sec/ 100 μl RBC] | strength of antioxidant action on monolayer liposome [3] | strength of antioxidant action on erythrocyte membrane (erythrocyte membrane) | incorporation (reaction rate with radicals) relative to tocopherol ([1]; from residual rates on human erythrocyte membrane) | ability of improving the deformability of erythrocytes (Human erythrocytes; comparison of tocotrienol with tocopherol)
1 | CC(C)=CCC/C(C)=C/CC/C(C)=C/CC[C@]1(C)CCc2c(C)c(O)c(C)c(C)c2O1 [α-tocotrienol] | 12 ± 2 | 7 ± 1 | 4 ± 1 | 26 ± 5 | 26 sec/100 μl erythrocyte (RBC) | 0.47 | inhibit hemolysis by dialuric acid even in an amount of one third |  |  |  |  | 
2 | Cc1c(C)c2c(c(C)c1O)CC[C@@](C)(CCC[C@H](C)CCC[C@H](C)CCCC(C)C)O2 [α-tocopherol, reference compound] | 41 ± 3 | 25 ± 4 | 19 ± 3 | 34 ± 5 |  | 0.63 |  | 36 |  |  |  | 
3 | tocotrienol |  |  |  |  |  |  |  |  | difference in the strength of antioxidant action on monolayer liposome was not found | much greater than that of tocopherol | about three to four times as much as that of tocopherol | more excellent than tocopherol
4 | tocopherol [reference compound] |  |  |  |  |  |  |  |  | difference in the strength of antioxidant action on monolayer liposome was not found |  |  | 
